Test results published in patent publication US20250129102A1, “CRYSTAL FORM OF PYRIMIDINE HETEROCYCLIC COMPOUND AND PREPARATION METHOD THEREFOR” (D3 Bio (Wuxi) Co., Ltd., priority 2021, published 2025).
Read-outs that look alike come from different tables or passages of the source.

Legend:
[1] = Metabolic stability in hepatocytes, cynomolgus monkeys; assay type: in vitro ADME; conditions: cynomolgus monkey, cryopreserved hepatocytes
Description: Metabolic stabilities of assay compound in hepatocytes of CD-1 mice, SD rats, beagle dogs, cynomolgus monkeys, and human were assayed, respectively.
Several 96-well sample precipitation plates were prepared and named T0, T15, T30, T60, T90, T120, T0-MC, T120-MC and blank substrates, respectively. The recovery medium and incubation medium were taken out in advance and placed in a 37° C. water bath for pre-heating. Cryopreserved hepatocytes were removed from the liquid nitrogen tank and immediately immersed in a 37° C. water bath (approximately 90 seconds). After the cryopreserved hepatocytes had thawed and loosened, they were poured into a centrifuge tube containing 40 mL of recovery medium, and the tube was gently inverted to allow the cells to be resuspended in the recovery medium. The cells were centrifuged at 100×g at room temperature for 5 min, and the supernatant was removed. The hepatocytes were resuspended in an appropriate volume of incubation medium, and the cell viability was calculated by Trypan Blue staining method. 198 μL of hepatocyte suspension (0.51×10^6 cells/mL) was added to the preheated incubation plate. For the culture medium control group, 198 μL of hepatocyte-free incubation medium was added to T0-MC and T120-MC incubation plate. All incubation plates were pre-incubated in a 37° C. incubator for 10 minutes. Then 2 μL of working solutions of the assay sample and the control compound were added, respectively, and the mixture was mixed well. The incubation plate was immediately put into the shaker in the incubator, and the reaction was initiated while starting the timer. For each time point of each compound, 2 duplicate samples were prepared. The incubation conditions were 37° C., saturated humidity, and 5% CO2. […] All samples were mixed well and analyzed by LC/MS/MS.

[2] = In vitro stability in liver microsomes, beagle dogs; assay type: in vitro ADME; conditions: dog, 0.5 mg/mL
Description: (§1) Metabolic stabilities of the assay compound in liver microsomes of CD-1 mice, SD rats, beagle dogs, cynomolgus monkeys, and human were assayed, respectively.
(§2) Two 96-well incubation plates were prepared and named T60 incubation plate and NCF60 incubation plate, respectively. 445 μL of microsomal working solutions (liver microsomal protein concentration of 0.56 mg/mL) were added to the T60 incubation plate and the NCF60 incubation plate, respectively, and then the above incubation plates were pre-incubated in a 37° C. water bath for about 10 minutes.
(§3) After the pre-incubation, 5 μL of working solutions of the assay sample or the control compound were added to the T60 incubation plate and the NCF60 incubation plate, respectively, and the mixture was mixed well. 50 μL of potassium phosphate buffer was added to each well of the NCF60 incubation plate to initiate the reaction. 180 μL of stop solution (200 ng/mL tolbutamide and 200 ng/mL labetalol in acetonitrile) and 6 uL of NADPH regeneration system working solution were added to the T0 stop plate, and 54 μL of sample was transferred from T60 incubation plate to T0 stop plate (generation of T0 sample). The reaction was initiated by adding 44 μL of NADPH regeneration system working solution to each well of the T60 incubation plate. Only 54 μL of microsome working solution, 6 uL of NADPH regeneration system working solution and 180 μL of stop solution were added to the Blank plate. Therefore, in samples of the assay compound or the control compound, the final reaction concentration of compound, testosterone, diclofenac and propafenone was 1 μM, the concentration of liver microsomes was 0.5 mg/mL, and the final reaction concentrations of DMSO and acetonitrile in the reaction system were 0.01% (v/v) and 0.99% (v/v), respectively. […] All samples were injected and analyzed by liquid chromatography-tandem mass spectrometry.

[3] = In vitro stability in liver microsomes, human; assay type: in vitro ADME; conditions: 0.5 mg/mL
Description: as §1, §2, §3

[4] = Pharmacokinetics by oral administration and intravenous injection in SD rats; assay type: in vivo; conditions: for Area under the plasma concentration-time curve, AUCu: AUC0-last × PPB(Unbound %); for Vd: SD, iv, 2 mg/kg; for AUC(0-t): read-out: Area under the plasma concentration-time curve, AUC0-last
Description: • 1) Assay on the pharmacokinetics of the assay compound by oral administration and intravenous injection in SD rats
The assay compound was mixed with 5% o dimethyl sulfoxide/95% o (10% hydroxypropyl-β-cyclodextrin) solution. The mixture was vortexed and sonicated to prepare a 1 mg/mL clear solution, which was filtered through a microporous membrane for later use. Male SD rats aged 7 to 10 weeks were selected, and administered candidate compound solutions intravenously or orally. Whole blood was collected for a certain period of time, and prepared to obtain plasma. Drug concentration was analyzed by LC-MS/MS method, and pharmacokinetic parameters were calculated by Phoenix WinNonlin software (Pharsight, USA).

Which results are given for C=C(F)C(=O)N1CCN(c2nc(OC[C@@]34CCCN3C[C@H](F)C4)nc3c2CO[C@H](c2c(F)c(N)cc(C)c2C(F)(F)F)C3)C[C@@H]1CC#N [Compound of formula (I)]?
half-life at 1 μM [1]: 0.45 h; hepatocyte CLint at 1 μM ([1]; read-out: CLint(hep)): 51.3 µL/min/1e6 cells; CLint scaled at 1 μM ([1]; read-out: CLint(liver)): 185 mL/min/kg; CLint scaled at 1 μM [2]: < 13.8 mL/min/kg; half-life at 1 μM [2]: > 2.42 h; microsomal CLint at 1 μM ([2]; read-out: CLint(hep)): < 9.6 µL/min/mg; CLint scaled at 1 μM [3]: 61.1 mL/min/kg; half-life at 1 μM [3]: 0.34 h; microsomal CLint at 1 μM ([3]; read-out: CLint(hep)): 67.9 µL/min/mg; Area under the plasma concentration-time curve, AUCu ([4]; intravenous injection, 2.0 mg/kg): 0.0313 µM·h; Vd ([4]; male, rat, plasma, intravenous injection, 2.0 mg/kg, Vdss/PPB(Unbound %), read-out: Apparent volume of distribution, Vdss, u): 221 L/kg; Vd ([4]; male, rat, plasma, intravenous injection, 2.0 mg/kg, read-out: Apparent volume of distribution, Vdss): 10.6 L/kg; AUC(0-t) ([4]; male, rat, plasma, intravenous injection, 2.0 mg/kg): 0.653 µM·h; clearance ([4]; male, rat, plasma, intravenous injection, 2.0 mg/kg, read-out: Clearance rate, CL): 71.5 mL/min/kg; half-life ([4]; male, rat, plasma, intravenous injection, 2.0 mg/kg, read-out: Half-life time, T1/2 (converted)): 1.9 h; AUC(0-t) ([4]; male, rat, plasma, oral administration, 9.8 mg/kg): 0.995 µM·h; bioavailability ([4]; male, rat, plasma, oral administration, 9.8 mg/kg, read-out: Bioavailability F (%)): 30.5%; Cmax ([4]; male, rat, plasma, oral administration, 9.8 mg/kg, read-out: Peak concentration, Cmax): 220 nM; Tmax ([4]; male, rat, plasma, oral administration, 9.8 mg/kg, read-out: Time-to-peak, Tmax): 1.5 h; Area under the plasma concentration-time curve, AUCu ([4]; oral administration, 9.8 mg/kg): 0.0478 µM·h; Peak concentration, Cmax, u ([4]; oral administration, 9.8 mg/kg, Cmax × PPB(Unbound %)): 10.6 nM
